In ChEMBL document CHEMBL5727681, “Alkoxy compounds for disease treatment” (2020) one finds IC50 data, which are given here for 11 compounds.

Bounds are passed on as bounds.

The assay is described as follows: In Vitro Isomerase Inhibition Assay: Isomerase inhibition reactions were performed essentially as described (Stecher et al., J Biol. Chem. 274:8577-85 (1999).
What is called IC50 is the concentration that gives 50% inhibition. For the compound `NCCCc1cccc(OCC2CCCCC2)c1`, the IC50 was less than 100 nM. Next, `CCC(CC)COc1cccc(CCCN)c1`: less than 100 nM; `NCCOc1cccc(OCC2CCCCCC2)c1`: less than 100 nM; `NCCC(O)c1cccc(OCC2(O)CCCCC2)c1` (stereo unspecified): less than 100 nM. Turning to `CCCC(CCC)COc1cccc(CCCN)c1`, the IC50 was less than 100 nM. Next, `NCCC(=O)c1cccc(OCC2CCCCCC2)c1`: less than 100 nM; `NCCOc1cccc(OCC2CCCCC2)c1`: less than 100 nM. Next, `NCCCc1cccc(OCC2(O)CCCCC2)c1`: less than 100 nM. For `NCC(O)Cc1cccc(OCC2CCCCC2)c1` (stereo unspecified) the value was less than 100 nM; for `CCCC(O)(CCC)COc1cccc(C(O)CCN)c1` (stereo unspecified), less than 100 nM. With `NCCC(=O)c1cccc(OCC2CCCCC2)c1`, the concentration for half-maximal inhibition (IC50) was less than 100 nM.
